The results in this text go back to US5773459A, “Urea- and thiourea-type compounds” (Sugen, Inc., priority 1995, dated 1998).

The assay concerns 3T3/IGF-1R cells. The assay is described as follows: IGF-1 Receptor Growth Assay (3T3/IGF-1R cells, SRB). The format is cell-based. Here is the method:
Sulforhodamine B (SRB) Assay for Adherent Cells
Sulforhodamine B assays for measuring effects of TBST compounds on cell growth were based on procedures described by Skehan et al. J. Natl. Cancer Inst. 82:1107, 1990 incorporated herein by reference in its entirety, including any drawings. Unless otherwise stated the assays were carried out aseptically as follows:
IGF-1 Receptor Growth Assay
Cell lines: 3T3/IGF-1 R (10% FBS/2 mM glutamine/DMEM) NIH 3T3 c7 (10% calf serum/2 mM glutamine/DMEM) NOTE: NIH 3T3 cells (and cells derived from them) should never be allowed to become confluent because this increases the chance of spontaneous transformation. If they show signs of being transformed (morphological changes, piling up, moving into clumps), throw them away and thaw a fresh batch.
Materials: 10% FBS/2 mM glutamine/DMEM 0.5% FBS/2 mM glutamine/DMEM 10% calf serum/2 mM glutamine/DMEM IGF-1, 5 μM in sterile PBS (Promega/Fisher cat. #G5111) DMSO, tissue culture grade (Sigma cat. #D 2650) Hits from screen 11, 100 mM in DMSO 96-well plates, flat and round bottom 8 channel pipettor and sterile tips sterile reagent reservoirs sterile tubes (1.5 or 15 ml)
Methods (carry all steps out under asceptic conditions until fixing the cells for the SRB assay):
Day 0: Cell Plating--Trypsinize and count 3T3/IGF-1R and NIH 3T3 c7 cells. Dilute in growth media to 2000 cells/200 μl and seed flat bottom 96-well plates with 200 μl/well, one plate for two compounds for each cell line.
Day 1: Compound preparation--Add DMSO to each compound to make 100 mM stock solutions.
Aliquot each compound to 3-4 sterile screw cap tubes and store at -20° C. After thawing, make sure the compound has gone completely back into solution. Throw away after 3 freeze/thaws.
3T3/IGF-1R cells--For each 96-well plate, make 15 ml of 10 nM IGF-1/0.5% FBS/2 mM glutamine/DMEM (30 μl of 5 μM IGF-1/15 ml).
Aliquot 1.5 ml 10 nM IGF-1/0.5% FBS to a sterile tube for each compound to be tested (the first time a compound is tested, use a 15 ml tube in case it is necessary to add extra medium to get it into solution).
Add 3 μl of 100 mM stock of each compound to a tube so 200 μM final. Shake or vortex until it goes into solution. If it is necessary to add additional medium, note the final concentration.
For the DMSO control, prepare 0.5 ml/plate of 0.2% DMSO/10 nM IGF-1/0.5% FBS (2 μl DMSO/ml).
For every two compounds, aliquot 130 μl 10 nM IGF-1/0.5% FBS to wells in columns 2-11 of a 96-well round bottom plate.
Add 260 μl of each compound to four wells in column 12.
Do 2-fold dilutions (130 μl) from columns 12 to 3 on each plate (column 2 will be for the untreated control), mixing thoroughly.
Remove medium from 3T3/IGF-1 R cells, one plate at a time. […]

Where [1] appears, read: read-out: GROWTH DATA: 3T3/IGF1R-0.5% FBS.
Setting [2] is: read-out: GROWTH DATA: 3T3/IGF1R-10% FBS.

Like-named read-outs stand apart in the source and are kept apart here.

With `CC(C)S(=O)(=O)c1csc(NC(=O)Nc2cc(C(F)(F)F)cc(C(F)(F)F)c2)c1Cl` [Example Z2, N-[3-Chloro-4-(isopropylsulfonyl)thien-2-yl]-N'-(3,5-di-trifluoromethylphenyl)urea], the IC50 under setting [1] worked out at 0.7 µM and the IC50 under setting [2] worked out at 20 µM.

Turning to `O=C(Nc1ccc(SC(F)(F)F)cc1)Nc1ccc(Oc2ccc(Cl)cc2Cl)nc1` [Example Z3], the IC50 was determined as 0.6 µM under setting [1] and 18 µM under setting [2].
